This note sets out measurements from patent US20090215725A1, “Substituted 4-aminocyclohexane derivatives” (GRUNENTHAL GMBH, priority 2008, published 2009).

The subject of the assay is Male Sprague Dawley rats. Put plainly: Chung model: mononeuropathic pain after spinal nerve ligation (mechanical allodynia, von Frey withdrawal threshold). The format is in vivo. To be noted: rat, FIG. 1.

Regarding `CN(C)C1(c2ccccc2)CCC(COCc2c[nH]c3ccc(F)cc23)CC1` (stereo not drawn) [Example 10, 1-Phenyl-4-(((5-fluoro-1H-indol-3-yl)methoxy)methyl)-N,N-dimethylcyclohexanamine], the “effect on the undamaged, contralateral side” value (contralateral rear paw, tested dose) was “only a very small and statistically insignificant effect”. The “rise in the withdrawal threshold” value (ipsilateral rear paw, spinal nerve ligation, allodynia fall from approx. 55 g to 25 g) is “over 40 g”. Besides, under “ipsilateral side, spinal nerve ligation”, the “allodynia condition (effectiveness in neuropathic pain)” value was “almost completely relieved”.
